Data on 4 compounds can be found in ChEMBL document CHEMBL1124903 (J Med Chem, 1990).

Each structure is given as a SMILES string. Where only a bound is given, the exact number is not on record here.

In general, half-life refers to the time in which the quantity being followed falls by half.

The nature of this series: Half life (T 1/2) estimated in the absence of light, in 50 mM Tris-HCl 1 mM EDTA (pH 7.4) buffer. The series is classed as ADME. As to conditions: 50 mM Tris-HCl 1 mM EDTA buffer.
Regarding `CC(c1ccc(Cl)cc1)N1CCC2(CC1)C(=O)NCN2c1ccc(N=[N+]=[N-])cc1` (centres undefined), the half-life was greater than 24 h.
The value for `CN(c1ccc(N=[N+]=[N-])cc1)C1CCC2(O)C3Cc4ccc(O)c5c4C2(CCN3CC2CC2)C1O5` (centres undefined) was greater than 24 h; that for `CC(c1ccc(Cl)cc1)N1CCC2(CC1)C(=O)NCN2c1ccc([N+]#N)cc1` (centres undefined) was 5 h; that for `CN(c1ccc([N+]#N)cc1)C1CCC2(O)C3Cc4ccc(O)c5c4C2(CCN3CC2CC2)C1O5` (centres undefined) [NALTREXONEDIAZONIUM] was 5 h.
